# Reference: patent publication US5023254A, “Aminoalkylindoles, their production, and pharmaceutical preparations based thereon” (Schering Aktiengesellschaft, priority 1988, dated 1991)
# Where “and” joins values, the source holds several entries; their conditions need not be identical. Equal values may be shown once.
# How the values were obtained:
# estrogen receptor = biological target: T1, estrogen receptor (Bos taurus, UniProt P49884); assay: relative binding affinity (RBA) for the estrogen receptor from calf uterus, displacement of 3H-17β estradiol; conditions: for RBA (relative binding affinity for the estrogen receptor): calf uterus, relative to 17 beta estradiol = 100; for affinity for the estrogen receptor (in words): in comparison with estradiol
# T1 construct: estrogen receptor from calf uterus; from tissue; host or cells: calf uterus
# T1 sequence (P49884 1-596): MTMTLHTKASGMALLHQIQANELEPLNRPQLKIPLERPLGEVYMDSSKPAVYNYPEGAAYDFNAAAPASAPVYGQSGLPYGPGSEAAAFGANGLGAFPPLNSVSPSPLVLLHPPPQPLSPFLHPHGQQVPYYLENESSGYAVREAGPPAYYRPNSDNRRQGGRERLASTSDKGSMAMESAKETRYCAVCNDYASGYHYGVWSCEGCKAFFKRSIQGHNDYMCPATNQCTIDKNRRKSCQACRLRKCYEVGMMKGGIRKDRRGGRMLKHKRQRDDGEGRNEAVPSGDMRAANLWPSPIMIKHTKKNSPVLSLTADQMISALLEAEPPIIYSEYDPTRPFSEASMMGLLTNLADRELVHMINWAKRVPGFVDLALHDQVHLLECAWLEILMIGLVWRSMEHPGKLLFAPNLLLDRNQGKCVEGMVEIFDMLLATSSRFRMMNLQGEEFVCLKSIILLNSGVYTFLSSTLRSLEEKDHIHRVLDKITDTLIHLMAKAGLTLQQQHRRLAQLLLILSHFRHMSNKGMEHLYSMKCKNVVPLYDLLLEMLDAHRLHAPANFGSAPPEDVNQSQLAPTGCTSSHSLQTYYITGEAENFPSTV
# Source text: *Relative binding affinities for the estrogen receptor from calf uterus,
# mouse uterus [1] = assay: Uterotrophic test on infantile mouse (estrogen activity); type: in vivo; parameters: unit not given here
# Source text: (§1) This test is fully described in Cancer Treatment Reviews 1984, 11, 147, and J.Med.Chem., 1984, 27, 1439.
# mouse uterus [2] = assay: Antiuterotrophic test on infantile mouse (anti-estrogen activity); type: in vivo; parameters: Antiuterotrophic Test Rel. uterus wgt / Antiuterotrophic Test Action (rel. uterus wgt): unit not given here; conditions: for inhibition in vivo at 0.125 mg: Mus musculus; for inhibition in vivo at 0.125 mg / inhibition in vivo at 0.005 mg / inhibition in vivo at 0.025 mg / inhibition in vivo at 0.625 mg: read-out: Antiuterotrophic Test Inhib. (%); for Antiuterotrophic Test Action (rel. uterus wgt) / Antiuterotrophic Test Rel. uterus wgt / inhibition in vivo at 0.005 mg / inhibition in vivo at 0.025 mg / inhibition in vivo at 0.625 mg: infantile mouse; for inhibition in vivo at 0.005 mg: dose 5 ug (per animal); for inhibition in vivo at 0.025 mg: dose 25 ug (per animal)
# Source text: as §1
# [3] = system: human MCF-7 breast cancer cells; assay: growth of hormone-dependent human MCF-7 breast cancer cells, cell count; type: cell-based; conditions: Homo sapiens, MCF7, read-out: Cell Count (% T/C); for activity at 10 µM: MCF-7, 1 × 10^-5 M; for activity at 1 µM: MCF-7, 1 × 10^-6 M; for activity at 0.1 µM: MCF-7, 1 × 10^-7 M; for activity at 5 µM: MCF-7, 5 × 10^-6 M; for activity at 0.5 µM: MCF-7, 5 × 10^-7 M
# Source text: The test protocol for the research is fully described in Eur.J. Cancer Clin. Oncol.
SMILES,RBA (relative binding affinity for the estrogen receptor) (estrogen receptor),affinity for the estrogen receptor (in words) (estrogen receptor),Uterotrophic Test Action (rel. uterus wgt) (mouse uterus [1]; dose 5 ug/animal),Uterotrophic Test Action (rel. uterus wgt) (mouse uterus [1]; dose 25 ug/animal),inhibition in vivo at 0.125 mg (mouse uterus [2]) [%],Antiuterotrophic Test Action (rel. uterus wgt) (mouse uterus [2]; dose 5 ug/animal),Antiuterotrophic Test Action (rel. uterus wgt) (mouse uterus [2]; dose 25 ug/animal),activity at 10 µM [3] [%],activity at 1 µM [3] [%],activity at 0.1 µM [3] [%],inhibition in vivo at 0.005 mg (mouse uterus [2]) [%],inhibition in vivo at 0.025 mg (mouse uterus [2]) [%],further results
"Oc1ccc(-c2cc3cc(O)ccc3n2CCCCCCN2CCCCC2)cc1 [Compound 7, 5-Hydroxy-2-(4-hydroxyphenyl)-1-[6-piperidino-hexyl]-indole]",1.3,least affinity,,,,,,,,,,,
"Cc1c(-c2ccc(O)cc2)n(CCCCCC(=O)N2CCOCC2)c2ccc(O)cc12 [Compound 18, 5-Hydroxy-2-(4-hydroxyphenyl)-3-methyl-1-(6-morpholinocarbonylpentyl)-indole]",26,,22.0 ± 5.6,21.2 ± 4.6,41,53.5 ± 8.7,52.8 ± 7.4,33.3 ± 2.8,56.4 ± 5.2,57.5 ± 6.8,,,Uterotrophic Test Action (rel. uterus wgt) (mouse uterus [1]; dose 1 ug/animal): 20.2 ± 3.4; activity at 5 µM [3]: 42.4 ± 3.7%; activity at 0.5 µM [3]: 58.1 ± 6.7%
"C[C@]12CC[C@@H]3c4ccc(O)cc4CC[C@H]3[C@@H]1CCC2=O [Estrone, reference compound]",,,,,,,,,,,,,Uterotrophic Test Rel. uterus wgt (mouse uterus [1]; estrone 0.4 ug): 45.8 ± 6.2 and 59.8 ± 20.0 and 53.4 ± 3.6 and 43.0 ± 7.2 and 54.2 ± 12.1; Antiuterotrophic Test Rel. uterus wgt (mouse uterus [2]; estrone alone 0.4 ug): 54.2 ± 12.1
"CNCCCCCCn1c(-c2ccc(O)cc2)c(C)c2cc(O)ccc21 [Compound 3, 5-Hydroxy-2-(4-hydroxyphenyl)-3-methyl-1-[6-methylamino-hexyl]-indole]",27,greatest affinity,,,59,,,,,,49,43,Uterotrophic Test Rel. uterus wgt (mouse uterus [1]; dose 1 ug): 14.2 ± 3.1; Uterotrophic Test Rel. uterus wgt (mouse uterus [1]; dose 5 ug): 22.8 ± 8.6; Uterotrophic Test Rel. uterus wgt (mouse uterus [1]; dose 125 ug): 34.0 ± 6.3; Antiuterotrophic Test Rel. uterus wgt (mouse uterus [2]; dose 5 ug): 38.1 ± 8.2; Antiuterotrophic Test Rel. uterus wgt (mouse uterus [2]; dose 25 ug): 41.0 ± 8.5; Antiuterotrophic Test Rel. uterus wgt (mouse uterus [2]; dose 125 ug): 33.8 ± 2.4
"Cc1c(-c2ccc(O)cc2)n(CCCCCC(=O)NCc2ccccc2)c2ccc(O)cc12 [Compound 20, 1-(6-Benzylcarbamoylpentyl)-5-hydroxy-2-(4-hydroxyphenyl)-3-methylindole]",12,,16.5 ± 3.6,20.9 ± 6.5,,50.7 ± 5.0,46.9 ± 7.7,26.8 ± 4.2,46.8 ± 4.2,58.3 ± 4.9,,12,Uterotrophic Test Action (rel. uterus wgt) (mouse uterus [1]; dose 625 ug/animal): 19.9 ± 4.1; Antiuterotrophic Test Action (rel. uterus wgt) (mouse uterus [2]; dose 625 ug/animal): 59.5 ± 12.4; inhibition in vivo at 0.625 mg (mouse uterus [2]; dose 625 ug/animal): -23%; activity at 5 µM [3]: 36.6 ± 2.5%; activity at 0.5 µM [3]: 47.9 ± 3%
"Cc1c(-c2ccc(O)cc2)n(CCCCCCN(C)C)c2ccc(O)cc12 [Compound 4, 5-Hydroxy-2-(4-hydroxyphenyl)-3-methyl-1-[6-dimethyamino-hexyl]-indole]",12,,,,,,,,,,,,
CCN(CC)CCCCCCn1c(-c2ccc(O)cc2)c(C)c2cc(O)ccc21 [Compound 11],14,,24.8 ± 11.7,14.7 ± 4.3,50,51.3 ± 4.9,52.1 ± 8.9,,,,11,8,Uterotrophic Test Action (rel. uterus wgt) (mouse uterus [1]; dose 625 ug/animal): 36.4 ± 17.6; Antiuterotrophic Test Action (rel. uterus wgt) (mouse uterus [2]; dose 625 ug/animal): 43.7 ± 7.4; inhibition in vivo at 0.625 mg (mouse uterus [2]; dose 625 ug/animal): 37%
"Cc1c(-c2ccc(O)cc2)n(CCCCCCN)c2ccc(O)cc12 [Compound 2, 5-Hydroxy-2-(4-hydroxyphenyl)-3-methyl-1-[6-amino-hexyl]-indole]",,greatest affinity,,,99,,,,,,68,102,Uterotrophic Test Rel. uterus wgt (mouse uterus [1]; dose 1 ug): 10.9 ± 4.7; Uterotrophic Test Rel. uterus wgt (mouse uterus [1]; dose 5 ug): 12.0 ± 2.2; Uterotrophic Test Rel. uterus wgt (mouse uterus [1]; dose 25 ug): 12.4 ± 2.7; Uterotrophic Test Rel. uterus wgt (mouse uterus [1]; dose 125 ug): 16.9 ± 2.7; Antiuterotrophic Test Rel. uterus wgt (mouse uterus [2]; dose 5 ug): 30.0 ± 9.1; Antiuterotrophic Test Rel. uterus wgt (mouse uterus [2]; dose 25 ug): 15.1 ± 1.2; Antiuterotrophic Test Rel. uterus wgt (mouse uterus [2]; dose 125 ug): 16.2 ± 2.7
"Oc1ccc(-c2cc3cc(O)ccc3n2CCCCCCN2CCCC2)cc1 [Compound 5, 5-Hydroxy-2-(4-hydroxyphenyl)-1-[6-pyrrolidino-hexyl]-indole]",2.3,,,,,,,,,,,,

# More lines, main results first:
RBA (relative binding affinity for the estrogen receptor) (estrogen receptor),affinity for the estrogen receptor (in words) (estrogen receptor),SMILES,Uterotrophic Test Action (rel. uterus wgt) (mouse uterus [1]; dose 5 ug/animal),Uterotrophic Test Action (rel. uterus wgt) (mouse uterus [1]; dose 25 ug/animal),inhibition in vivo at 0.125 mg (mouse uterus [2]) [%],Antiuterotrophic Test Action (rel. uterus wgt) (mouse uterus [2]; dose 5 ug/animal),Antiuterotrophic Test Action (rel. uterus wgt) (mouse uterus [2]; dose 25 ug/animal),activity at 10 µM [3] [%],activity at 1 µM [3] [%],activity at 0.1 µM [3] [%],inhibition in vivo at 0.005 mg (mouse uterus [2]) [%],inhibition in vivo at 0.025 mg (mouse uterus [2]) [%],further results
7.6,,"Cc1c(-c2ccc(O)cc2)n(CCCCCCCCN2CCCC2)c2ccc(O)cc12 [Compound 9, 5-Hydroxy-2-(4-hydroxyphenyl)-3-methyl-1-[8-pyrrolidino-octyl]-indole]",,,,,,,,,,,
19,,"Cc1c(-c2ccc(O)cc2)n(CCCCCC(=O)N2CCCCC2)c2ccc(O)cc12 [Compound 17, 5-Hydroxy-2-(4-hydroxyphenyl)-3-methyl-1-(6-piperidinocarbonylpentyl)-indole]",17.7 ± 3.2,16.3 ± 3.0,59,48.7 ± 9.1,42.9 ± 4.7,86.5 ± 8.3,96 ± 7.7,89 ± 10.8,6,22,Uterotrophic Test Action (rel. uterus wgt) (mouse uterus [1]; dose 1 ug/animal): 23.8 ± 2.8; activity at 5 µM [3]: 99.6 ± 7.6%; activity at 0.5 µM [3]: 95.5 ± 10.2%
10,,"Cc1c(-c2ccc(O)cc2)n(CCCCCCN2CCOCC2)c2ccc(O)cc12 [Compound 10, 5-Hydroxy-2-(4-hydroxyphenyl)-3-methyl-1-[6-morpholino-hexyl]-indole]",,,102,,,36,52,75,8,18,Uterotrophic Test Rel. uterus wgt (mouse uterus [1]; dose 1 ug): 21.2 ± 3.9; Uterotrophic Test Rel. uterus wgt (mouse uterus [1]; dose 5 ug): 19.5 ± 6.9; Uterotrophic Test Rel. uterus wgt (mouse uterus [1]; dose 25 ug): 21.8 ± 11.3; Uterotrophic Test Rel. uterus wgt (mouse uterus [1]; dose 125 ug): 17.4 ± 1.7; Antiuterotrophic Test Rel. uterus wgt (mouse uterus [2]; dose 5 ug): 51.2 ± 7.5; Antiuterotrophic Test Rel. uterus wgt (mouse uterus [2]; dose 25 ug): 47.7 ± 8.4; Antiuterotrophic Test Rel. uterus wgt (mouse uterus [2]; dose 125 ug): 18.0 ± 4.8
23,greatest affinity,"Cc1c(-c2ccc(O)cc2)n(CCCCCCN2CCCCC2)c2ccc(O)cc12 [Compound 8, 5-Hydroxy-2-(4-hydroxyphenyl)-3-methyl-1-[6-piperidino-hexyl]-indole]",,,,,,38,44,48,,,
